Assay results from patent publication US20240156800A1, “EP300 DEGRADER AND USES THEREOF IN NEUROBLASTOMA” (DANA-FARBER CANCER INSTITUTE, INC., priority 2021, published 2024).

How the values were obtained:
EP300 = target: T1, EP300 (Homo sapiens, UniProt Q09472); experiment: Western blotting of EP300 in treated NB cells; assay type: cell-based
T1 construct: Cells growing in culture were lysed for whole cell lysates; endogenous in cells; host or cells: Kelly, NGP, SIMA, BE2C neuroblastoma cells; Kelly xenografts in NSG mice
Experimental: Cells growing in culture were lysed for whole cell lysates as described in Durbin et al. Nat. Genet. 50:1240-1246 (2018) and Wang et al. Nat. Commun. 10:5622 (2019). Nuclear lysates were prepared using the NE-PER® nuclear lysate kit (Thermo Scientific™) according to the manufacturer's protocol. Chromatin lysates were prepared with the total histone extraction kit (Epigentek). Briefly, equivalent amounts of protein were resolved by western blotting using 4-12% Bis-Tris NuPAGE™ gels (Thermo-Fisher Scientific) prior to transfer, and immunoblotting using primary antibodies to: MYCN (1:1000, Cell Signaling Technology®), H3K27ac (1:1000, Abcam), total H3 (1:1000, Cell Signaling Technology®), EP300 (1:1000, Abcam), CBP (1:500, Cell Signaling Technology®), Cas9 (1:1000, Cell Signaling Technology®), cleaved-PARP1 (1:1000, Cell Signaling Technology), cleaved Caspase-3 (1:1000, Cell Signaling Technology®), β-actin (1:1000, Cell Signaling Technology®), GATA3 (1:1000, EMD Millipore™), TFAP2β (1:1000, Cell Signaling Technology®), Vinculin (1:1000, EMD Millipore™), CRBN (1:1000, Cell Signaling Technology®), HAND2 (1:1000, Santa Cruz Biotechnology). Secondary antibodies were horseradish peroxidase (HRP)-conjugated anti-rabbit or anti-mouse (1:5000, Santa Cruz Biotechnology), incubated prior to exposure to enhanced chemiluminescence reagents (GE, Amersham). For immunoprecipitation, equal amounts of protein were diluted in buffer C as described in Mansour et al. Science 346:1373-1377 (2014) and incubated with antibodies covalently conjugated to Dynabeads™ M-270 beads (Thermo-Fisher Scientific) overnight according to the manufacturer's directions. Antibodies used included: H3K27ac, EP300 (Abcam), CBP, TFAP2β (Cell Signaling Technology®), rabbit immunoglobulin G (IgG) (Santa Cruz Biotechnology®). Immunoprecipitated protein was isolated as per the manufacturer's directions and subjected to western blotting, as described above, or mass spectrometry.

CBP = target: T2, CBP (Mus musculus, UniProt P45481); experiment: Immunohistochemistry of CBP in liver of Crbn ILE391VAL knockin mice; assay type: in vivo; details: 40 mg/Kg IP daily, 14 days
T2 construct: from tissue; host or cells: liver of Balb/c Crbn^ILE391VAL knock-in mice
Experimental: For toxicity studies, four female CD1 mice (Charles River Laboratories) were injected intraperitoneally (IP) with single doses of 10 mg/Kg (R,S)-JQAD1 solubilized in 10% hydroxypropyl β-cyclodextrin (Sigma-Aldrich®) in sterile water. Following injection, blood concentration of (R,S)-JQAD1 was measured by serial measurements of animal serum at time points out to 24 h, by liquid chromatography with tandem mass spectrometry (LC-MS/MS) analysis. Pharmacokinetics were performed at ChemPartner in Shanghai, China, using LC-MS/MS method and pharmacokinetics parameters (Tmax, Cmax, T1/2, AUC, etc.) calculated with WinNonlin® V 6.2 statistics software (Pharsight Corporation) using a noncompartmental model. For maximally tolerated dose (MTD) testing, six female CD1 mice were treated with daily IP doses of (R,S)-JQAD1 at 10, 20, or 40 mg/kg. Animals were monitored for animal weight, grooming and behavior daily without noted effects. […] Animal weights, behavior and grooming were monitored daily, for a total of 21 days. […] Blood samples were obtained by retro-orbital puncture and blood analyzed at the Small Animal Imaging Facility at Beth Israel Deaconess Medical Center (Boston, MA), on a Hemavet® 9500FS (Drew Scientific) for blood counts, creatinine, AST, ALT, ALP, GGTP, and BUN measurements. […]

T1 sequence (Q09472 whole entry): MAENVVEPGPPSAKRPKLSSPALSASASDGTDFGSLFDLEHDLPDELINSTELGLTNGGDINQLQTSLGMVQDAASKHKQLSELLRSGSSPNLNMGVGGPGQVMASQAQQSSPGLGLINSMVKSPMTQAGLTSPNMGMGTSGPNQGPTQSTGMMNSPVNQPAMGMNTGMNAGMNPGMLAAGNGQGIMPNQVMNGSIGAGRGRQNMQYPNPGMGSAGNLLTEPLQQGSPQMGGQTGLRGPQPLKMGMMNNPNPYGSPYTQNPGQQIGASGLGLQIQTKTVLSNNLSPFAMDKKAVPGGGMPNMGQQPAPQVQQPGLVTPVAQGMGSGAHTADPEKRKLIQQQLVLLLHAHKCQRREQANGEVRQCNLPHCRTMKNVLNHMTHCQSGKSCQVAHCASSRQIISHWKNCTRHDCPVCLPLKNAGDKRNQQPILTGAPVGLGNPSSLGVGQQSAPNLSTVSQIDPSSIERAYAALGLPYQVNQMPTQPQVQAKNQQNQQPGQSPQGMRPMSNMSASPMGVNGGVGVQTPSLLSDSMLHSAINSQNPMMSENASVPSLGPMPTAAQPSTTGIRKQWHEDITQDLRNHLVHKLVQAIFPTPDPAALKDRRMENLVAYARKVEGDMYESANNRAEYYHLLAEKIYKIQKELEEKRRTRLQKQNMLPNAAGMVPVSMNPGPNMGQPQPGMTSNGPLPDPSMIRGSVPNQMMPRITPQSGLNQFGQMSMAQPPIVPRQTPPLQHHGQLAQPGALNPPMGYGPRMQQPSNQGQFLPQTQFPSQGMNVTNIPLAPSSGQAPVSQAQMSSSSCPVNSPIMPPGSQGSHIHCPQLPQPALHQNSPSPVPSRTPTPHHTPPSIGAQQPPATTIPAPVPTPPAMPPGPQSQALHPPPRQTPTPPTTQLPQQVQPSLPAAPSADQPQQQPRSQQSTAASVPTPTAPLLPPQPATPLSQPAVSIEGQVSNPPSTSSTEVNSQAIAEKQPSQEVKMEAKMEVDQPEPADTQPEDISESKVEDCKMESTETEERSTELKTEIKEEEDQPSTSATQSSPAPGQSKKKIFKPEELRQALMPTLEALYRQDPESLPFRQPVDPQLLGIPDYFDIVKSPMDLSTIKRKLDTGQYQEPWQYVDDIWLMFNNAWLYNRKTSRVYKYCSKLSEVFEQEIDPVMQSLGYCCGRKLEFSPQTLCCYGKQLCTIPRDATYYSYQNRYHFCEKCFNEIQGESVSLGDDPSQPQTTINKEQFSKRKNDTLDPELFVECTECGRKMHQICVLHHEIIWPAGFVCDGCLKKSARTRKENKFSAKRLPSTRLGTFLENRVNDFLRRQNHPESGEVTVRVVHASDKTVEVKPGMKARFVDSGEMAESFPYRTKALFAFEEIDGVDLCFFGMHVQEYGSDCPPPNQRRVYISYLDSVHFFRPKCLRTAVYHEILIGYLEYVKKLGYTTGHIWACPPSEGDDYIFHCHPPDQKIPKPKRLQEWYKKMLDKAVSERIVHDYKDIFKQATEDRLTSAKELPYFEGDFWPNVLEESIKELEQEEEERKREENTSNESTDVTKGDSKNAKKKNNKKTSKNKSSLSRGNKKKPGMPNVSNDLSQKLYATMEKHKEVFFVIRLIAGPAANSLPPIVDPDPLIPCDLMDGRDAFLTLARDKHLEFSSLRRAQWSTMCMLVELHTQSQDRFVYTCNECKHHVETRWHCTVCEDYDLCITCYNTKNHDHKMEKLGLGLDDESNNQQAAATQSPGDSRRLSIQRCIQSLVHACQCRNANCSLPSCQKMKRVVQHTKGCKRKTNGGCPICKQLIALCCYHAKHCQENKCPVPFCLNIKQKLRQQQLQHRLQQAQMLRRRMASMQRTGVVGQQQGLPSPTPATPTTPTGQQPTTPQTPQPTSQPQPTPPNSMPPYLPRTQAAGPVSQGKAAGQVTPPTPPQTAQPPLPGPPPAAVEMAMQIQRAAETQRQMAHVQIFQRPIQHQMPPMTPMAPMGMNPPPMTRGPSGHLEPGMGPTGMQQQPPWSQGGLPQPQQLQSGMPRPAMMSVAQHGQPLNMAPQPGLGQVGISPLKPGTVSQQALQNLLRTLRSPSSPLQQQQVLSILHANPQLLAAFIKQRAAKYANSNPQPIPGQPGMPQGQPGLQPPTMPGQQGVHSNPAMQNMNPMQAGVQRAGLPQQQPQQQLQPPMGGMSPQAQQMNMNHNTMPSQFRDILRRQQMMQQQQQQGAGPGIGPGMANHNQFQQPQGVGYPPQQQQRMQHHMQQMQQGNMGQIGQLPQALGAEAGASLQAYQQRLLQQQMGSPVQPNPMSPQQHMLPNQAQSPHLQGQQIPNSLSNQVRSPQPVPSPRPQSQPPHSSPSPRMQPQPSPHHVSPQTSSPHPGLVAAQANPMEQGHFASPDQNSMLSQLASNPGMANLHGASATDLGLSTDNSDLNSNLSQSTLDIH
T2 sequence (P45481 whole entry): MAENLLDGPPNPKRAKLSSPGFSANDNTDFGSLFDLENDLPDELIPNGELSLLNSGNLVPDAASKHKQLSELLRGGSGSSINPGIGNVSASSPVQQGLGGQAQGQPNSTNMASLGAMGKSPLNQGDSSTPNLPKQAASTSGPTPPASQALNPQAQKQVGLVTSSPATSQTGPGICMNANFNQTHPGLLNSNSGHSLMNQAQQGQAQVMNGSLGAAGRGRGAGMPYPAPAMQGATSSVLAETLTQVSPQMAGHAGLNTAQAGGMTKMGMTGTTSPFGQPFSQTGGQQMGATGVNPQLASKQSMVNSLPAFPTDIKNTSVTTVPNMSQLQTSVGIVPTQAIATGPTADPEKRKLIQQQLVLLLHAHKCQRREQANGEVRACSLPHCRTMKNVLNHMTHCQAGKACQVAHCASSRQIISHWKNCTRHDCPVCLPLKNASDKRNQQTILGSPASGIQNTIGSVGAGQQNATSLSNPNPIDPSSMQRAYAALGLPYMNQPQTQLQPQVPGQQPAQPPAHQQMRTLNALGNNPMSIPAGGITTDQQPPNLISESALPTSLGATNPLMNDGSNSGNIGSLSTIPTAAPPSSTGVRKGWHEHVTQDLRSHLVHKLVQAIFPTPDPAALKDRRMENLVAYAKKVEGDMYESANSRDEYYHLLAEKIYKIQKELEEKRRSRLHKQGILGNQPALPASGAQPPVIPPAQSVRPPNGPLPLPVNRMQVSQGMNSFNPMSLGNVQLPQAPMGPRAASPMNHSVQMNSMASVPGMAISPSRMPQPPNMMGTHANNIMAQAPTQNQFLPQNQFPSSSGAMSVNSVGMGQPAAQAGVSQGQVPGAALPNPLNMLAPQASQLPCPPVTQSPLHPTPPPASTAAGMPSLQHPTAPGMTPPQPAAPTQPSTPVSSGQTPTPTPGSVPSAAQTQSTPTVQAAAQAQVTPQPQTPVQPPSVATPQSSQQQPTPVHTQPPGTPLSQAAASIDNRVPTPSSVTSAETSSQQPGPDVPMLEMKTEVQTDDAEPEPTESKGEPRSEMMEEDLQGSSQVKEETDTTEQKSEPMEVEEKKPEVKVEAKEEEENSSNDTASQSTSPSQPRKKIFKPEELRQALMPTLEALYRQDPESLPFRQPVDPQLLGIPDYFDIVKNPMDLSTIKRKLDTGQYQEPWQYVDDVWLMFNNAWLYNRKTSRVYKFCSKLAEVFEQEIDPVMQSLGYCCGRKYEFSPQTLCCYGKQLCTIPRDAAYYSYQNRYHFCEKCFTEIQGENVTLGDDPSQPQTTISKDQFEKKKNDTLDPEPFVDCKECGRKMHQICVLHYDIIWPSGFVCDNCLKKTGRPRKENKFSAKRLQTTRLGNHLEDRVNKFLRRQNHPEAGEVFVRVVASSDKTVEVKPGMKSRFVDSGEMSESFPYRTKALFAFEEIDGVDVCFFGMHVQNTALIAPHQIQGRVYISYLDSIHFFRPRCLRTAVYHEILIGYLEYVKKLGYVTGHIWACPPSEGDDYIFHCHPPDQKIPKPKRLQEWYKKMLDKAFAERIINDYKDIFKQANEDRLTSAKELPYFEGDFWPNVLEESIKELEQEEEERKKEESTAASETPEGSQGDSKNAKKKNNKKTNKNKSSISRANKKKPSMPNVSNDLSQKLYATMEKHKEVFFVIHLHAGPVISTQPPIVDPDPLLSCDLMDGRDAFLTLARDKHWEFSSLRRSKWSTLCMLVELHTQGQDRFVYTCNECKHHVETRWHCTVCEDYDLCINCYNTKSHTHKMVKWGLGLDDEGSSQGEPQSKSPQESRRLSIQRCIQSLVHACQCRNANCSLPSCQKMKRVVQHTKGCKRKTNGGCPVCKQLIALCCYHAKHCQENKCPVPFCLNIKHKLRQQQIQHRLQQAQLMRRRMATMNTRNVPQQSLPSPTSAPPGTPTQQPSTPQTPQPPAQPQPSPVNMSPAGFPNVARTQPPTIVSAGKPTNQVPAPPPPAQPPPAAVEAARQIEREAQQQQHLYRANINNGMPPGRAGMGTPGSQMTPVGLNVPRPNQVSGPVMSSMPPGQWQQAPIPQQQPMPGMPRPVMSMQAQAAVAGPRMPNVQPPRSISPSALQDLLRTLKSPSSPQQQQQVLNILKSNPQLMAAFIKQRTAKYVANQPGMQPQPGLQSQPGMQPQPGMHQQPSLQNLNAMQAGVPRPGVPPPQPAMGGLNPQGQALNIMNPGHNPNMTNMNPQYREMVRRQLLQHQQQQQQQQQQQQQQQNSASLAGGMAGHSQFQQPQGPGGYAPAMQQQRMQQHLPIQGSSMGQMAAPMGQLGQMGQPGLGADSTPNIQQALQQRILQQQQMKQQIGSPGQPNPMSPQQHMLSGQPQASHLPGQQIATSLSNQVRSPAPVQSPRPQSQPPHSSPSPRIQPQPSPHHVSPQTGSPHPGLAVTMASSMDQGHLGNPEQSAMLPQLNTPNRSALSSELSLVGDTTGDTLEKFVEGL

C[C@H](N(Cc1ccc(F)cc1)C(=O)CN1C(=O)O[C@@]2(CCc3cc(NC(=O)CCCCCCCCCCCNc4ccc5c(c4)C(=O)N(C4CCC(=O)NC4=O)C5=O)ccc32)C1=O)C(F)(F)F (stereo partly drawn) [JQAD1, 12-((2-(2,6-dioxopiperidin-3-yl)-1,3-dioxoisoindolin-5-yl)amino)-N-((R)-3′-(2-((4-fluorobenzyl)((S)-1,1,1-trifluoropropan-2-yl)amino)-2-oxoethyl)-2′,4′-dioxo-2,3-dihydrospiro[indene-1,5′-oxazolidin]-5-yl)dodecanamide]
EP300 expression in BE2C-CRBN cells (EP300; BE2C cells overexpressing CRBN, 10 μM): degraded within 24 h | EP300 expression in control BE2C-zsGreen cells (EP300; BE2C-zsGreen cells, 10 μM): unaffected | degradation of EP300 on co-treatment with excess A485, pomalidomide, bortezomib or MLN4924 (EP300; Kelly cells, 4 h pre-treatment, then JQAD1 500 nM 48 h): blocked | EP300 expression (EP300; Kelly cells, 24 h): dose-dependent decrease in EP300 expression | EP300 expression (EP300; Kelly cells, 24 h, listed as (R,S)-JQAD1): suppressed both H3K27ac and EP300 expression levels | EP300 expression (time course) (EP300; Kelly, NGP and SIMA cells): selective loss of EP300 expression by 24 h | EP300, H3K27ac and PARP1 cleavage in control versus CRBN-edited cells (EP300; Kelly-Cas9 cells, 500 nM, 24 h): suppressed EP300 expression and the H3K27ac modification, and induced apoptosis marked by PARP1 cleavage in control knockout cells, but not in CRBN-edited cells | CBP in liver (CBP): CBP remained detectable by immunohistochemistry
